What was measured:
[1] = test system: Beet Armyworm (BAW) (Spodoptera exigua); assay: Bioassays on BAW, 128-well diet tray assay; type: in vivo; details: for mortality at 50 µg/cm2: Spodoptera exigua, 168 h, 50 μg/cm^2 on artificial diet, second instar larvae, five to seven days, 25° C., read-out: BAW Rating (percent mortality); for BAW Rating: Beet Armyworm, 128-well diet tray assay, rating C = Not Tested (omitted), D = no activity noticed
Protocol: (§1) Certain molecules disclosed in this document were tested against BAW, CEW and CL using procedures described in the following examples. In the reporting of the results, the “BAW & CEW & CL Rating Table” was used (See Table Section).
Bioassays on BAW (Spodoptera exigua)
Bioassays on BAW were conducted using a 128-well diet tray assay. One to five second instar BAW larvae were placed in each well (3 mL) of the diet tray that had been previously filled with 1 mL of artificial diet to which 50 μg/cm^2 of the test compound (dissolved in 50 μL of 90:10 acetone-water mixture) had been applied (to each of eight wells) and then allowed to dry. Trays were covered with a clear self-adhesive cover, and held at 25° C., 14:10 light-dark for five to seven days. Percent mortality was recorded for the larvae in each well; activity in the eight wells was then averaged. The results are indicated in the tables entitled “Table 3: Assay Results Part 1” and “Table 4: Assay Results Part 2” (See Table Section).

[2] = test system: Cabbage Looper (CL) (Trichoplusia ni); assay: Bioassays on CL, 128-well diet tray assay; type: in vivo; details: 168 h, 50 μg/cm^2 on artificial diet, second instar larvae, five to seven days, 25° C., read-out: CL Rating (percent mortality)
Protocol: as §1
Bioassays on CL (Trichoplusia ni)
Bioassays on CL were conducted using a 128-well diet tray assay. One to five second instar CL larvae were placed in each well (3 mL) of the diet tray that had been previously filled with 1 mL of artificial diet to which 50 μg/cm^2 of the test compound (dissolved in 50 μL of 90:10 acetone-water mixture) had been applied (to each of eight wells) and then allowed to dry. Trays were covered with a clear self-adhesive cover, and held at 25° C., 14:10 light-dark for five to seven days. Percent mortality was recorded for the larvae in each well; activity in the eight wells was then averaged. The results are indicated in the table entitled “Table 4: Assay Results Part 2” (See Table Section).

Compound	mortality at 50 µg/cm2 [1] [%]	mortality at 50 µg/cm2 [2] [%]	BAW Rating [1]
O=C(NC1(C(=O)NCC(F)(F)F)CC1)c1ccc(/C=C/C(c2cc(Cl)c(Cl)c(Cl)c2)C(F)(F)C(F)(F)F)cc1C(F)(F)F (centres unmarked) [Compound P1005]	50 to 100	50 to 100	–
COCCNC(=O)C1(NC(=O)c2ccc(/C=C/C(c3cc(Cl)c(Cl)c(Cl)c3)C(F)(F)F)cc2Br)CC1 (centres unmarked) [FA28]	50 to 100	50 to 100	–
COCCN(C)C(=O)C1(NC(=O)c2ccc(/C=C/C(c3cc(Cl)c(Cl)c(Cl)c3)C(F)(F)F)cc2Br)CC1 (centres unmarked) [FA43]	50 to 100	50 to 100	–
COc1ccc(NC(=O)C2(NC(=O)c3ccc(/C=C/C(c4cc(Cl)c(Cl)c(Cl)c4)C(F)(F)F)cc3Br)CC2)cc1 (centres unmarked) [FA40]	50 to 100	50 to 100	–
CC(F)(F)C(/C=C/c1ccc(C(=O)NC2(C(=O)NCC(F)(F)F)CC2)c(Br)c1)c1ccc(Cl)c(Cl)c1 (centres unmarked) [FA12]	50 to 100	50 to 100	–
O=C(NC1(C(=O)NCC(F)(F)F)CC1)c1ccc(/C=C/C(c2cc(Cl)cc(Br)c2)C(F)(F)F)cc1Br (centres unmarked) [Compound P378]	50 to 100	50 to 100	–
O=C(NC1(C(=O)NCC(F)(F)F)CC1)c1ccc(/C=C/C(c2cc(F)cc(Br)c2)C(F)(F)F)cc1Br (centres unmarked) [Compound P198]	50 to 100	50 to 100	–
Cc1cc(C(/C=C/c2ccc(C(=O)NC3(C(=O)NCC(F)(F)F)CC3)c(Br)c2)C(F)(F)F)ccc1F (centres unmarked) [Compound P693]	50 to 100	50 to 100	–
O=C(NC1(C(=O)Nc2cccc(Cl)c2)CC1)c1ccc(/C=C/C(c2cc(Cl)c(Cl)c(Cl)c2)C(F)(F)F)cc1Br (centres unmarked) [FA38]	0 to 50	0 to 50	–
Cc1cc(C(/C=C/c2ccc(C(=O)NC3(C(=O)NCC(F)(F)F)CC3)c(C(F)(F)F)c2)C(F)(F)F)ccc1F (centres unmarked) [Compound P336]	50 to 100	50 to 100	–
O=C(NC1(C(=O)NCC(F)(F)F)CC1)c1ccc(/C=C/C(c2ccc(F)c(F)c2F)C(F)(F)F)cc1C(F)(F)F (centres unmarked) [Compound P65]	50 to 100	50 to 100	–
O=C(NC1(C(=O)NCCn2cccn2)CC1)c1ccc(/C=C/C(c2cc(Cl)c(Cl)c(Cl)c2)C(F)(F)F)cc1Br (centres unmarked) [FA23]	50 to 100	50 to 100	–
COc1ccc(CNC(=O)C2(NC(=O)c3ccc(/C=C/C(c4cc(Cl)c(Cl)c(Cl)c4)C(F)(F)F)cc3Br)CC2)cc1 (centres unmarked) [FA33]	50 to 100	50 to 100	–
O=C(NC1(C(=O)NCc2cccc(C(F)(F)F)c2)CC1)c1ccc(/C=C/C(c2cc(Cl)c(Cl)c(Cl)c2)C(F)(F)F)cc1Br (centres unmarked) [FA26]	50 to 100	50 to 100	–
COc1cccc(CNC(=O)C2(NC(=O)c3ccc(/C=C/C(c4cc(Cl)c(Cl)c(Cl)c4)C(F)(F)F)cc3Br)CC2)c1 (centres unmarked) [FA35]	50 to 100	50 to 100	–
COc1ccccc1CN(C)C(=O)C1(NC(=O)c2ccc(/C=C/C(c3cc(Cl)c(Cl)c(Cl)c3)C(F)(F)F)cc2Br)CC1 (centres unmarked) [FA46]	0 to 50	50 to 100	–
O=C(NCCc1ccc(Cl)nc1)c1ccc(/C=C/C(c2cc(Cl)c(Cl)c(Cl)c2)C(F)(F)F)cc1Br (centres unmarked) [AC113]	–	–	B (More than 0 - Less than 50)
O=C(NC1(C(=O)NCCC(F)(F)F)CC1)c1ccc(/C=C/C(c2cc(Cl)c(Cl)c(Cl)c2)C(F)(F)F)cc1Br (centres unmarked) [Compound P1033]	50 to 100	50 to 100	–
O=C(NC1(C(=O)NC2CCOC2)CC1)c1ccc(/C=C/C(c2cc(Cl)c(Cl)c(Cl)c2)C(F)(F)F)cc1Br (centres unmarked) [FA25]	50 to 100	50 to 100	–
Cn1nc(C(F)(F)F)cc1NC(=O)C1(NC(=O)c2ccc(/C=C/C(c3cc(Cl)c(Cl)c(Cl)c3)C(F)(F)F)cc2Br)CC1 (centres unmarked) [FA48]	50 to 100	50 to 100	–
Cc1cc(C(/C=C/c2ccc(C(=O)NC3(C(=O)NCC(F)(F)F)CC3)c(Br)c2)C(F)(F)F)cc(Cl)c1Cl (centres unmarked) [FA4]	50 to 100	50 to 100	–
O=C(NC1(C(=O)NCC(F)(F)F)CC1)c1ccc(/C=C/[C@@H](c2cc(Cl)c(Cl)c(Cl)c2)C(F)(F)F)cc1C(F)(F)F (single isomer, unassigned) [Compound F8B]	50 to 100	50 to 100	–

Compound	mortality at 50 µg/cm2 [1] [%]	mortality at 50 µg/cm2 [2] [%]	BAW Rating [1]
Cc1cc(C(/C=C/c2ccc(C(=O)NC3(C(=O)NCC(F)(F)F)CC3)c(C(F)(F)F)c2)C(F)(F)F)ccc1Cl (centres unmarked) [Compound P245]	50 to 100	50 to 100	–
O=C(NC1(C(=O)NCC(F)F)CC1)c1ccc(/C=C/C(c2cc(Cl)c(Cl)c(Cl)c2)C(F)(F)F)cc1C(F)(F)F (centres unmarked) [Compound P1015]	50 to 100	50 to 100	–
O=C(NC1(C(=O)NC2COC2)CC1)c1ccc(/C=C/C(c2cc(Cl)c(Cl)c(Cl)c2)C(F)(F)F)cc1Br (centres unmarked) [FA20]	50 to 100	50 to 100	–
O=C(NC1(C(=O)NCC(F)F)CC1)c1ccc(/C=C/C(c2cc(Br)cc(Br)c2)C(F)(F)F)cc1C(F)(F)F (centres unmarked) [Compound P1195]	50 to 100	50 to 100	–
O=C(NC1(C(=O)NCC(F)(F)F)CCC1)c1ccc(/C=C/C(c2cc(Cl)c(Cl)c(Cl)c2)C(F)(F)F)cc1Cl (centres unmarked) [Compound F4]	50 to 100	50 to 100	–
COc1ccccc1NC(=O)C1(NC(=O)c2ccc(/C=C/C(c3cc(Cl)c(Cl)c(Cl)c3)C(F)(F)F)cc2Br)CC1 (centres unmarked) [FA39]	0	0	–
O=C(NC1(C(=O)NCc2ccccc2Cl)CC1)c1ccc(/C=C/C(c2cc(Cl)c(Cl)c(Cl)c2)C(F)(F)F)cc1Br (centres unmarked) [FA29]	50 to 100	50 to 100	–
O=C(NC1(C(=O)Nc2cccc(C(F)(F)F)c2)CC1)c1ccc(/C=C/C(c2cc(Cl)c(Cl)c(Cl)c2)C(F)(F)F)cc1Br (centres unmarked) [FA37]	0 to 50	0	–
COc1ccc(N(C)C(=O)C2(NC(=O)c3ccc(/C=C/C(c4cc(Cl)c(Cl)c(Cl)c4)C(F)(F)F)cc3Br)CC2)cc1 (centres unmarked) [FA41]	50 to 100	50 to 100	–
CCNC(=O)C1(NC(=O)c2ccc(/C=C/C(c3cc(Cl)c(Cl)c(Cl)c3)C(F)(F)F)cc2C)CC1 (centres unmarked) [Compound P1026]	50 to 100	50 to 100	–
CCNC(=O)NCc1ccc(/C=C/C(c2cc(Cl)cc(Cl)c2)C(F)(F)F)cc1Cl (centres unmarked) [CC31, (E)-1-(2-Chloro-4-(3-(3,5-dichlorophenyl)-4,4,4-trifluorobut-1-en-1-yl)benzyl)-3-ethylurea]	–	–	B (More than 0 - Less than 50)
Cc1cc(/C=C/C(c2cc(Cl)c(Cl)c(Cl)c2)C(F)(F)F)ccc1C(=O)NC1(C(=S)NCC(F)(F)F)CC1 (centres unmarked) [Compound P1011]	50 to 100	50 to 100	–
Cc1cc(C(/C=C/c2ccc(C(=O)NC3(C(=O)NCC(F)(F)F)CC3)c(C(F)(F)F)c2)C(F)(F)F)cc(Cl)c1Cl (centres unmarked) [FA3]	50 to 100	50 to 100	–
O=C(NC1(C(=O)NCC(F)F)CC1)c1ccc(/C=C/C(c2cc(Br)cc(Br)c2)C(F)(F)F)cc1Br (centres unmarked) [Compound P1193]	50 to 100	50 to 100	–
O=C(NC1(C(=O)NCC(F)(F)F)CC1)c1ccc(/C=C/C(c2cccc(OC(F)(F)F)c2)C(F)(F)F)cc1C(F)(F)F (centres unmarked) [Compound P155]	50 to 100	50 to 100	–
O=C(NC1(C(=O)NCC(F)(F)F)CC1)c1ccc(/C=C/C(c2ccc(Cl)c(Cl)c2)C(F)(F)F)cc1C(F)(F)F (centres unmarked) [Compound P1095]	50 to 100	50 to 100	–
O=C(NC1(C(=O)NCC(F)(F)F)CC1)c1ccc(/C=C/C(c2cc(Br)c(Cl)c(Br)c2)C(F)(F)F)cc1Br (centres unmarked) [FA6]	50 to 100	50 to 100	–
Cc1cc(/C=C/C(c2cc(Cl)c(Cl)c(Cl)c2)C(F)(F)F)ccc1C(=O)NC1(C(=O)NCC(F)(F)F)CCC1 (centres unmarked) [FA1]	50 to 100	50 to 100	–
CN(Cc1ccc(Br)cc1)C(=O)C1(NC(=O)c2ccc(/C=C/C(c3cc(Cl)c(Cl)c(Cl)c3)C(F)(F)F)cc2Br)CC1 (centres unmarked) [FA44]	50 to 100	50 to 100	–
FC(F)(F)C(/C=C/c1ccc(-n2cncn2)cc1)c1ccccc1 (centres unmarked) [DC3]	–	–	B (More than 0 - Less than 50)
O=C(NC1CCN(C2COC2)CC1)c1ccc(/C=C/C(c2cc(Cl)c(Cl)c(Cl)c2)C(F)(F)F)cc1Br (centres unmarked) [AC108, (E)-2-Bromo-N-(1-(oxetan-3-yl)piperidin-4-yl)-4-(4,4,4-trifluoro-3-(3,4,5-trichlorophenyl)but-1-en-1-yl)benzamide]	–	–	B (More than 0 - Less than 50)
N#CCN1CCC(NC(=O)c2ccc(/C=C/C(c3cc(Cl)c(Cl)c(Cl)c3)C(F)(F)F)cc2Br)CC1 (centres unmarked) [AC107]	–	–	B (More than 0 - Less than 50)

Reference: patent US9212164B2, “Pesticidal compositions and processes related thereto” (Dow AgroSciences LLC, priority 2012, dated 2015)
